Assay results as given in patent publication US20250025427A1, “MIXED AMIDE ESTER CONTAINING LIPIDS FOR USE IN LIPID NANOPARTICLES” (Acuitas Therapeutics, Inc., priority 2023, published 2025).

Test system: human IgG in mouse serum
Assay: Immunoglobulin G (IgG) mRNA in vivo evaluation using lipid nanoparticle compositions
Parameters: species or system mice
Settings: LNP with the cationic lipid, tail vein injection, μg IgG/mL serum 24 hours after administration; for Serum IgG (μg/mL) @ 0.3 mg/kg: 0.3 mg mRNA/kg; for Serum IgG (μg/mL) @ 1.0 mg/kg: 1.0 mg mRNA/kg
Procedure: A lipid of Formula (I), DSPC, cholesterol and PEG-lipid of Formula (II) are solubilized in ethanol at a molar ratio of 50:10:38.5:1.5 or 47.5:10:40.7:1.8. Lipid nanoparticles (LNP) are prepared at a total lipid to mRNA weight ratio of approximately 10:1 to 40:1. Briefly, the mRNA is diluted to 0.2 mg/mL in 10 to 50 mM citrate buffer, pH 4 to 6 or 10 to 25 mM acetate buffer, pH 4 to 6. Syringe pumps are used to mix the ethanolic lipid solution with the mRNA aqueous solution at a ratio of about 1:5 to 1:3 (vol/vol) with total flow rates above 15 mL/min. The ethanol is then removed, and the external buffer replaced with PBS by dialysis. Finally, the lipid nanoparticles are filtered through a 0.2 µm pore sterile filter.
Studies are performed in 6-8-week-old CD-1/ICR mice (Charles River or Inotiv) according to guidelines established by an institutional animal care committee (ACC) and the Canadian Council on Animal Care (CCAC). Varying doses of mRNA-lipid nanoparticle are systemically administered by tail vein injection and animals euthanized at a specific time point (e.g., 24 hours) post-administration. The whole blood is collected, and the serum subsequentially separated by centrifuging the tubes of the whole blood at 2000×g for 10 minutes at 4° C. and stored at −80° C. until use for analysis.
For immunoglobulin G (IgG) ELISA (Life Diagnostics Human IgG ELISA kit), the serum samples are diluted at 100 to 20,000 folds with 1× diluent solution. 100 μL of diluted serum is dispensed into anti-human IgG coated 96-well plate in duplicate alongside human IgG standards and incubated in a plate shaker at 150 rpm at 25° C. for 45 minutes. The wells are washed 5 times with 1× wash solution using a plate washer (400 μL/well). 100 μL of HRP conjugate is added into each well and incubated in a plate shaker at the same condition above. The wells are washed 5 times again with 1× wash solution using a plate washer (400 μL/well). 100 μL of TMB reagent is added into each well and incubated in a plate shaker at the same condition above. The reaction is stopped by adding 100 μL of Stop solution to each well. The absorbance is read at 450 nm (A450) with a microplate reader. The amount of human IgG in mouse serum is determined by plotting A450 values for the assay standard against human IgG concentration.
Representative compounds of the disclosure shown in Table 2 were formulated using the following molar ratio: 50% cationic lipid/10% distearoylphosphatidylcholine (DSPC)/38.5% Cholesterol/1.5% PEG lipid 2-[2-(ω-methoxy(polyethyleneglycohooo)ethoxy]-N,N-ditetradecylacetamide) or 47.5% cationic lipid/10% DSPC/40.7% Cholesterol/1.8% PEG lipid. Relative activity was determined by measuring the amount of human IgG […]. The activity was compared at a dose of 1.0 or 0.3 mg mRNA/kg and expressed as ng luciferase/g liver measured 4 hours after administration, as described in Example 1 or as μg IgG/mL serum measured 24 hours after administration, as described in Example 2. Compound numbers in Table 2 refer to the compound numbers of Table 1.

Row | Compound | Serum IgG (μg/mL) @ 0.3 mg/kg | Serum IgG (μg/mL) @ 1.0 mg/kg
1 | CCCCCCCCC(CCCCCC)COC(=O)CCCCCCCNC(=O)CCCCCCCCCN(C)CCCCCCCCCC(=O)NCCCCCCCC(=O)OCC(CCCCCC)CCCCCCCC (centres unmarked) [Compound I-2, Bis(2-Hexyldecyl) 8,8′-((10,10′-(Methylazanediyl)Bis(Decanoyl))Bis(Azanediyl))Dioctanoate] | 70.7 ± 11.3 µg/mL | 369.6 ± 59.4 µg/mL
2 | CCCCCCCCC(CCCCCC)COC(=O)CCCCCCCC(=O)N(CCCCCC)CCCCCCN(C)CCCCCCN(CCCCCC)C(=O)CCCCCCCC(=O)OCC(CCCCCC)CCCCCCCC (centres unmarked) [Compound I-5, Bis(2-Hexyldecyl) 9,9′-(((Methylazanediyl)Bis(Hexane-6,1-Diyl))Bis(Hexylazanediyl))Bis(9-Oxononanoate)] | 57.5 ± 8.4 µg/mL | 
3 | CCCCCCCCC(CCCCCC)COC(=O)CCCCCNC(=O)CCCCCCCN(C)CCCCCCCC(=O)N(CCCCCC)CCCCCC(=O)OCC(CCCCCC)CCCCCCCC (centres unmarked) [Compound I-11, 2-Hexyldecyl 6-(8-((8-(Hexyl(6-((2-Hexyldecyl)Oxy)-6-Oxohexyl)Amino)-8-Oxooctyl)(Methyl)Amino)Octanamido)Hexanoate] | 35.6 ± 5.5 µg/mL | 
4 | CCCCCCCCC(CCCCCC)COC(=O)CCCCCN(CCCCCC)C(=O)CCCCCCCN(CCCCCCCC(=O)N(CCCCCC)CCCCCC(=O)OCC(CCCCCC)CCCCCCCC)[C@H]1CC[C@@H](O)CC1 (stereo partly drawn) [Compound I-12, Rel-Bis(2-Hexyldecyl) 6,6′-((8,8′-(((1R,4R)-4-Hydroxycyclohexyl)Azanediyl)Bis(Octanoyl))Bis(Hexylazanediyl))Dihexanoate] | 29.6 ± 12.7 µg/mL | 
5 | CCCCCCCCC(CCCCCC)C(=O)OCCCCCCCCC(=O)N(CCCCCC)CCCCCCN(C)CCCCCCN(CCCCCC)C(=O)CCCCCCCCOC(=O)C(CCCCCC)CCCCCCCC (centres unmarked) [Compound I-13, (((methylazanediyl)bis(hexane-6,1-diyl))bis(hexylazanediyl))bis(9-oxononane-9,1-diyl) bis(2-hexyldecanoate)] | 11.3 ± 4.7 µg/mL | 
6 | CCCCCCCCC(CCCCCC)COC(=O)CCCCCCN(CCCCCC)C(=O)CCCCCCCN(C)CCCCCCCC(=O)N(CCCCCC)CCCCCCC(=O)OCC(CCCCCC)CCCCCCCC (centres unmarked) [Compound I-14, Bis(2-Hexyldecyl) 7,7′-((8,8′-(Methylazanediyl)Bis(Octanoyl))Bis(Hexylazanediyl))Diheptanoate] | 33.4 ± 7.7 µg/mL | 
7 | CCCCCCCCC(CCCCCC)COC(=O)CCCCN(CCCCCC)C(=O)CCCCCCCN(C)CCCCCCCC(=O)N(CCCCCC)CCCCC(=O)OCC(CCCCCC)CCCCCCCC (centres unmarked) [Compound I-15, Bis(2-Hexyldecyl) 5,5′-((8,8′-(Methylazanediyl)Bis(Octanoyl))Bis(Hexylazanediyl))Dipentanoate] | 48.2 ± 12.7 µg/mL | 135.0 ± 37.2 µg/mL
8 | CCCCCCCCC(CCCCCC)COC(=O)CCCCCCCN(CCCCCC)C(=O)CCCCCCN(C)CCCCCCC(=O)N(CCCCCC)CCCCCCCC(=O)OCC(CCCCCC)CCCCCCCC (centres unmarked) [Compound I-16, Bis(2-Hexyldecyl) 8,8′-((7,7′-(Methylazanediyl)Bis(Heptanoyl))Bis(Hexylazanediyl))Dioctanoate] | 37.2 ± 9.7 µg/mL | 
9 | CCCCCCCCC(CCCCCC)COC(=O)CCCCCCCCN(CCCCCC)C(=O)CCCCCN(C)CCCCCC(=O)N(CCCCCC)CCCCCCCCC(=O)OCC(CCCCCC)CCCCCCCC (centres unmarked) [Compound I-17, Bis(2-Hexyldecyl) 9,9′-((6,6′-(Methylazanediyl)Bis(Hexanoyl))Bis(Hexylazanediyl))Dinonanoate] | 16.0 ± 2.6 µg/mL | 
10 | CCCCCCCCC(CCCCCC)COC(=O)CCCCCCCN(CCCCCC)C(=O)CCCCN(C)CCCCC(=O)N(CCCCCC)CCCCCCCC(=O)OCC(CCCCCC)CCCCCCCC (centres unmarked) [Compound I-18, Bis(2-Hexyldecyl) 8,8′-((5,5′-(Methylazanediyl)Bis(Pentanoyl))Bis(Hexylazanediyl))Dioctanoate] | 8.9 ± 4.9 µg/mL | 32.4 ± 4.6 µg/mL
11 | CCCCCCCCC(CCCCCC)COC(=O)CCCCCN(CCCCCC)C(=O)CCCCN(C)CCCCC(=O)N(CCCCCC)CCCCCC(=O)OCC(CCCCCC)CCCCCCCC (centres unmarked) [Compound I-19, Bis(2-Hexyldecyl) 6,6′-((5,5′-(Methylazanediyl)Bis(Pentanoyl))Bis(Hexylazanediyl))Dihexanoate] | 12.3 ± 5.2 µg/mL | 
12 | CCCCCCCCC(CCCCCC)COC(=O)CCCCCCCCCN(CCCCCC)C(=O)CCCCCN(C)CCCCCC(=O)N(CCCCCC)CCCCCCCCCC(=O)OCC(CCCCCC)CCCCCCCC (centres unmarked) [Compound I-22, Bis(2-Hexyldecyl) 10,10′-((6,6′-(Methylazanediyl)Bis(Hexanoyl))Bis(Hexylazanediyl))Bis(Decanoate)] | 11.9 ± 5.9 µg/mL | 
13 | CCCCCCCCC(CCCCCC)COC(=O)CCCCCN(CCCCCC)C(=O)CCCCCCN(C)CCCCCCC(=O)N(CCCCCC)CCCCCC(=O)OCC(CCCCCC)CCCCCCCC (centres unmarked) [Compound I-24, Bis(2-Hexyldecyl) 6,6′-((7,7′-(Methylazanediyl)Bis(Heptanoyl))Bis(Hexylazanediyl))Dihexanoate] | 31.9 ± 6.4 µg/mL | 
14 | CCCCCCCCC(CCCCCC)COC(=O)CCCCCN(CCCCCC)C(=O)CCCCCCCN(C)CCCCCCCC(=O)N(CCCCCC)CCCCCC(=O)OCC(CCCCCC)CCCCCCCC (centres unmarked) [Compound I-25, Bis(2-Hexyldecyl) 6,6′-((8,8′-(Methylazanediyl)Bis(Octanoyl))Bis(Hexylazanediyl))Dihexanoate] | 55.3 ± 24.8 µg/mL | 192.4 ± 106.8 µg/mL
15 | CCCCCCCCC(CCCCCC)COC(=O)CCCCCN(CCCCCC)C(=O)CCCCCN(C)CCCCCC(=O)N(CCCCCC)CCCCCC(=O)OCC(CCCCCC)CCCCCCCC (centres unmarked) [Compound I-27, Bis(2-Hexyldecyl) 6,6′-((6,6′-(Methylazanediyl)Bis(Hexanoyl))Bis(Hexylazanediyl))Dihexanoate] | 15.6 ± 4.7 µg/mL | 
16 | CCCCCCCCC(CCCCCC)COC(=O)CCCCCN(C(=O)CCCCCCCN(C)CCCCCCCC(=O)N(CCCCCC(=O)OCC(CCCCCC)CCCCCCCC)C(C)C)C(C)C (centres unmarked) [Compound I-28, Bis(2-Hexyldecyl) 6,6′-((8,8′-(Methylazanediyl)Bis(Octanoyl))Bis(Isopropylazanediyl))Dihexanoate] | 13.2 ± 4.3 µg/mL | 
17 | CCCCCCCCC(CCCCCC)COC(=O)CCN(CCCCCC)C(=O)CCCCCCCN(C)CCCCCCCC(=O)N(CCCCCC)CCC(=O)OCC(CCCCCC)CCCCCCCC (centres unmarked) [Compound I-32, Bis(2-Hexyldecyl) 3,3′-((8,8′-(Methylazanediyl)Bis(Octanoyl))Bis(Hexylazanediyl))Dipropionate] | 70.8 ± 12.3 µg/mL | 
18 | CCCCCCC(CCCC)COC(=O)CCCCCN(CCCCCC)C(=O)CCCCCCCN(C)CCCCCCCC(=O)N(CCCCCC)CCCCCC(=O)OCC(CCCC)CCCCCC (centres unmarked) [Compound I-33, Bis(2-Butyloctyl) 6,6′-((8,8′-(Methylazanediyl)Bis(Octanoyl))Bis(Hexylazanediyl))Dihexanoate] | 75.8 ± 36.0 µg/mL | 
19 | CCCCCCCCC(CCCCCC)C(=O)OCCCCCCN(CCCCCC)C(=O)CCCCCCCN(CCCCCCCC(=O)N(CCCCCC)CCCCCCOC(=O)C(CCCCCC)CCCCCCCC)CCN(C)C (centres unmarked) [Compound I-34, ((8,8′-((2-(Dimethylamino)Ethyl)Azanediyl)Bis(Octanoyl))Bis(Hexylazanediyl))Bis(Hexane-6,1-Diyl) Bis(2-Hexyldecanoate)] | 5.0 ± 0.8 µg/mL | 
